Test results published in patent publication US7846924B2, “Cyanopyrroles” (Wyeth LLC, priority 1999, dated 2010).

Row | SMILES | melting point
1 | CN1C(=O)OC(C)(C)c2cc(-c3ccc(C#N)[nH]3)ccc21 [Example 12, 5-(1,4,4-trimethyl-2-oxo-1,4-dihydro-2H-3,1-benzoxazin-6-yl)-1H-pyrrole-2-carbonitril] | 256 to 257 °C (dec.)
2 | CCOc1cc(CCNC(=O)Cn2c(C#N)ccc2-c2ccc3c(c2)C(C)(C)OC(=O)N3)ccc1OC [Example 10, 2-[2-cyano-5-(4,4-dimethyl-2-oxo-1,4-dihydro-2H-3,1-benzoxazin-6-yl)-1H-pyrrol-1-yl]-N-[2-(3-ethoxy-4-methoxyphenyl)ethyl]acetamide] | 160 to 162 °C
3 | CCCCCn1c(C#N)ccc1-c1ccc2c(c1)C(C)(C)OC(=O)N2 [Example 11, 5-(4,4-Dimethyl-2-oxo-1,4-dihydro-2H-3,1-benzoxazine-6-yl)-1-pentyl-1H-pyrrole-2-carbonitrile] | 128 to 131 °C
4 | CC(C)(C)OC(=O)Cn1c(C#N)ccc1-c1ccc2c(c1)C(C)(C)OC(=O)N2 [Example 8, tert-butyl[2-cyano-5-(4,4-dimethyl-2-oxo-1,4-dihydro-2H-3,1-benzoxazin-6-yl)-1H-pyrrol-1-yl]acetate] | 188 to 190 °C
5 | CC1(C)OC(=O)Nc2ccc(-c3ccc(C#N)n3CC(=O)O)cc21 [Example 9, [2-Cyano-5-(4,4-dimethyl-2-oxo-1,4-dihydro-2H-3,1-benzoxazin-6-yl)-1H-pyrrol-1yl]acetic acid] | 207 to 209 °C
6 | C#CCn1c(C#N)ccc1-c1ccc2c(c1)C(C)(C)OC(=O)N2 [Example 7, 5-(4,4-dimethyl-2-oxo-1,4-Dihydro-2H-3,1-benzoxazin-6-yl)-1-prop-2-ynyl-1H-pyrrole-2-carbonitrile] | 222 to 224 °C
7 | CC1(C)OC(=O)Nc2ccc(-c3ccc(C#N)[nH]3)cc21 [Example 1, 5-(4,4-Dimethyl-2-oxo-1,4-dihydro-2H-benzo[d][1,3]oxazin-6-yl)-1H-pyrrole-2-carbonitrile] | 241 to 242 °C
8 | CC1(C)C(=O)Nc2ccc(C3(C#N)C=CC=N3)cc21 (stereo not drawn) [Example 3, 2-(3,3-Dimethyl-2-oxo-2,3-dihydro-1H-indol-5-yl)-2-cyanopyrrole] | 255.9 to 257.9 °C
9 | CCn1c(C#N)ccc1-c1ccc2c(c1)C(C)(C)OC(=O)N2 [Example 6, 5-(4,4-Dimethyl-2-oxo-1,4-dihydro-2H-3,1-benzoxazin-6-yl)-1-ethyl-1H-pyrrole-2-carbonitrile] | 200 to 202 °C
